Each compound was assayed against T1, h-11βHSD1 (Homo sapiens, UniProt P28845) (assay: 11βHSD1 enzyme assay (SPA)). Conditions: extract of yeast transformed with h-11βHSD1; 120 nM 3H-cortisone, 60 min at 30° C., pH=7.4; read-out: Inhibition of 11βHSD1, h-11βHSD1 IC50 values.
T1 construct: made in house
Assay type: biochemical
Description: 3H-cortisone and anti-rabbit Ig coated scintillation proximity assay (SPA) beads were purchased from Amersham Pharmacia Biotech, P-NADPH was from Sigma and rabbit anticortisol antibodies were from Fitzgerald. An extract of yeast transformed with h-11βHSD1 (Hult et al., FEBS Lett., 441, 25 (1998)) was used as the source of enzyme. The test compounds were dissolved in DMSO (10 mM). All dilutions were performed in a buffer containing 50 mM TRIS-HCl (Sigma Chemical Co), 4 mM EDTA (Sigma Chemical Co), 0.1% BSA (Sigma Chemical Co), 0.01% Tween-20 (Sigma Chemical Co) and 0.005% bacitracin (Novo Nordisk A/S), pH=7.4. Optiplate 96 wells plates were supplied by Packard. The amount of 3H-cortisol bound to the SPA beads was measured on TopCount NXT, Packard.
h-11βHSD1, 120 nM 3H-cortisone, 4 mM β3-NADPH, antibody (1:200), serial dilutions of test compound and SPA particles (2 mg/well) were added to the wells. The reaction was initiated by mixing the different components and was allowed to proceed under shaking for 60 min at 30° C. The reaction was stopped be the addition of 10 fold excess of a stopping buffer containing 500 μM carbenoxolone and 1 μM cortisone. Data was analysed using GraphPad Prism software.

T1 sequence (P28845 whole entry): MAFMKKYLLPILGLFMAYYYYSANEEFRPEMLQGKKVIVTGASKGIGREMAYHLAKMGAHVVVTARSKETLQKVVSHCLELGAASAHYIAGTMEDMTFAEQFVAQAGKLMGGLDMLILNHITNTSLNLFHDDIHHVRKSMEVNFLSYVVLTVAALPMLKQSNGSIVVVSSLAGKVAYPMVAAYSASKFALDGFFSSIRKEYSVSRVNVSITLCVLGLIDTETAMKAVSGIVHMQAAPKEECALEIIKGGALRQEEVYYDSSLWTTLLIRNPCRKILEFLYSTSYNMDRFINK

Structure (SMILES) | IC50 [µM]
CN(Cc1ccc(C(=O)N2CC3(C)CC2CC(C)(C)C3)cc1)C(=O)c1ccc(S(C)(=O)=O)cc1 (stereo not drawn) [Example 1-28, 4-Methanesulfonyl-N-methyl-N-[4-(1,3,3-trimethyl-6-aza-bicyclo[3.2.1]octane-6-carbonyl)-benzyl]-benzamide] | 0.019
CC(C)N(Cc1ccc(C(=O)N2CC3(C)CC2CC(C)(C)C3)cc1)S(=O)(=O)C(F)(F)F (stereo not drawn) [Example 2-5, Trifluoro-N-isopropyl-N-[4-(1,3,3-trimethyl-6-aza-bicyclo[3.2.1]octane-6-carbonyl)-benzyl]-methanesulfonamide] | 0.01
COC(=O)CN(C)C(=O)N(C)Cc1ccc(C(=O)N2CC3(C)CC2CC(C)(C)C3)cc1 (stereo not drawn) [Example 3-8, {1,3-Dimethyl-3-[4-(1,3,3-trimethyl-6-aza-bicyclo[3.2.1]octane-6-carbonyl)-benzyl]-ureido}-acetic Acid Methyl Ester] | 0.5
